Measured values published in publication PMC10208956, “Microbial peptides activate tumour-infiltrating lymphocytes in glioblastoma” (Nature, 2023).

How the values were obtained:
Type in all cases: cell-based, human
[1] = tested on: sorted CD4+ PE and FITC TCRVβ+ TILs; test: Proliferation of TCRBV-sorted CD4+ TILs (without TCRBV6.1 and TCRBV6.2); conditions: sheet 6b
From the text: TILs expressing specific TCRBVs were isolated from bulk TILs using a panel of 22 fluorescently labelled TCRBV antibodies that detect 27 different TCRBVs. Twelve TCRBV antibodies were labelled with PE and 10 with FITC (Beckman Coulter). […] After another wash, cells were stained with CD4 (1:100) (APC anti-human CD4, eBioscience), CD8 (1:100) (Pacific blue anti-human CD8, BioLegend), TCRBV-PE (1:25) (Beckman Coulter) and TCRBV-FITC (1:25) (Beckman Coulter) antibodies (Supplementary Table 12) for 30 min. Finally, cells were sorted, seeded at 5 × 10^4 cells per well in T cell medium without h-IL-2 and rested for 1 day before stimulation with 2 × 10^5 cells per well of irradiated autologous PBMCs (45 Gy) and peptide (10 µM).
Two populations of CD4^+ PE-TCRVβ^+ and CD4^+ FITC-TCRVβ^+ were sorted and later mixed together. […] Specific amount of each cytokine/chemokine (pg/ml) was calculated by subtracting the cytokines in the negative control cultures (no peptide control). Source data

[2] = tested on: bulk TILs (patient 1635WI); test: Cytokine and chemokine secretion of bulk TILs stimulated with IPdBPs; parameters: key to CD40 Ligand / Flt-3 Ligand / GM-CSF / Granzyme B / IFN-α / IFN-γ / IL-1rα / IL-1α / IL-1β / IL-2 / IL-3 / IL-4 / IL-5 / IL-6 / IL-7 / IL-10 / IL-12p70 / IL-13 / IL-15 / IL-17A / IL-33 / TNF-α / RANTES: pg/mL, negative-control amount subtracted; CXCL2/GROβ / CXCL10/IP-10 / CCL2/MCP-1 / CCL3/MIP-1α / CCL4/MIP-1β: unit not given beside the values; conditions: secretion by bulk TILs after peptide stimulation; sheet 1e
From the text: Fig. 1 Elution of HLA class II-presented bacterial peptides from 19 glioblastomas and the stimulatory effect of IPdBPs on bulk TILs. a, Schematic of the immunopeptidome analyses of glioblastoma tissue, from which eluted peptides were annotated using the UniProt bacteria database (1). TILs or peripheral memory T cells were stimulated with IPdBPs (2 and 3). LC–MS, liquid chromatography–mass spectrometry; PBMC, peripheral blood mononuclear cell. The images in panel a were created using BioRender (https://biorender.com). b, Number of unique IPdBPs in patients with glioblastoma (n = 19) (data from patient 1635WI contains both primary and recurrent tumours together), with 344 unique IPdBPs identified (left). These peptides originated from 255 and 199 unique proteins and bacteria, respectively (3 technical replicates). […] As a control, peptidome data were also annotated using human protein database to identify eluted self-peptides. As shown, most of HLA class II-bound peptides are self-(human) peptides. IPdBPs of primary (bottom left, n = 18) and recurrent (bottom right, n = 23) tumours were separately annotated to their source bacteria at the phylum level. d, Bulk TILs (patient 1635WI) were stimulated with IPdBPs (See Supplementary Table 8), each in five replicate wells, and proliferation was measured after 5 days via ^3H-thymidine incorporation. […] The data are expressed as the mean value of all wells ± s.e.m. SIN3A* peptide was used as a positive control as TILs recognize this tumour antigen. T cells with APCs without any stimuli were used as a negative control. e, Heatmap of cytokine and chemokine secretion of TILs stimulated with three IPdBPs, which weakly stimulated proliferation. The secretion of each cytokine and chemokine was calculated by subtracting the corresponding cytokine and chemokine amount (pg ml^−1) of the negative control. TILs with APCs without any stimuli were used as a negative control. Also see Extended Data Fig. 1. Source data
(§1) Supernatants from each experiment were harvested a day before adding thymidine and frozen at −20 °C. Cytokines were measured using ELISA for human IFNγ ELISA MAX (BioLegend), human GM-CSF DuoSet ELISA (R&D Systems) and bead-based assays. A Synergy H1 hybrid multi-mode reader (Agilent) was used to measure the absorbance. The LEGENDplex Multi-analyte Flow Assay kit (BioLegend) is a 13-plex human TH cytokine panel, which includes IFNγ, TNF, IL-2, IL-4, IL-5, IL-6, IL-9, IL-10, IL-13, IL-17A, IL-17F, IL-21 and IL-22. […] LSR Fortessa Flow Cytometer (BD Biosciences) was used to measure cytokines, and data were analysed using FlowJo (Tree Star). The Human XL Cytokine Luminex Performance Assay Fixed Panel (R&D Systems) contains 45 analytes covering a broad range of various chemokines and cytokines.

[3] = tested on: TCC88; test: Cytokine and chemokine secretion of TCC88 after peptide stimulation; conditions: TCC88 supernatant after peptide stimulation; no peptide control subtracted; Fig. 3e
From the text: Fig. 3 Bacteria-derived and microbiota-derived peptides can stimulate TCC88 as well as the tumour antigen. a, Peptides with the highest predicted stimulatory scores were identified by searching various databases (see Methods). Numbers of unique 10-mer peptides within each database, synthesized peptides, TCC88 stimulatory peptides and the corresponding percentage of stimulatory peptides within each database are shown. […] Cytokine and chemokine secretion of TCC88 was examined and compared upon stimulation with these three different antigens. A specific amount of each cytokine and chemokine (pg ml^−1) was calculated by subtracting the cytokines in the negative control cultures (no peptide control). f, Cytotoxicity of TCC88 against the autologous tumour cell line after stimulation with 2 µM of SIN3A* and HGM3 (data represent the mean percentage of two replicate wells). E:T, effector to target. g, TCC88 was tested with HGM3 (10 µM) or SIN3A* (10 µM) peptides or both together (each 10 µM), and ^3H-thymidine incorporation was measured after 3 days (data represent the mean SI value of three replicate wells ± s.e.m.). Also see Extended Data Figs. 3 and 4. Source data
as §1

Sequence: QLEFNHAIAS [HB2, UniProt bacteria database peptide]
- Proliferation (SI) of sorted CD4+ TILs ([1]; replicate 1): 1.556
- Proliferation (SI) of sorted CD4+ TILs ([1]; replicate 2): 1.363
- Proliferation (SI) of sorted CD4+ TILs ([1]; replicate 3): 1.455

Sequence: VFAIDRAGLVGEDGPT [Peptidome.Bac 5]
- CCL2/MCP-1 [2]: 40.48
- CCL3/MIP-1α [2]: 7.07
- CCL4/MIP-1β [2]: 0
- CCL11/Eotaxin [2]: 0
- CCL19/MIP-3β [2]: 0
- CCL20/MIP-3α [2]: 0
- CD40 Ligand [2]: 0
- CXCL1/GROα [2]: 0
- CXCL2/GROβ [2]: 5.86
- CXCL8/IL-8 [2]: 0
- CXCL10/IP-10 [2]: 62.72
- Flt-3 Ligand [2]: 1.13
- GM-CSF [2]: 16.51
- Granzyme B [2]: 0
- IFN-α [2]: 0
- IFN-γ [2]: 0
- IL-1rα [2]: 212.62
- IL-1α [2]: 0
- IL-1β [2]: 0
- IL-2 [2]: 0
- IL-3 [2]: 0
- IL-4 [2]: 0
- IL-5 [2]: 0
- IL-6 [2]: 8.61
- IL-7 [2]: 0.34
- IL-10 [2]: 0
- IL-12p70 [2]: 0
- IL-13 [2]: 16.57
- IL-15 [2]: 0
- IL-17A [2]: 0
- IL-17E/IL-25 [2]: 0
- IL-33 [2]: 0
- RANTES [2]: 0
- TNF-α [2]: 24.29

Sequence: QALVTLEENAVIG [Peptidome.Bac 14]
- CCL2/MCP-1 [2]: 351.37
- CCL3/MIP-1α [2]: 23.58
- CCL4/MIP-1β [2]: 78.06
- CCL11/Eotaxin [2]: 0
- CCL19/MIP-3β [2]: 2.57
- CCL20/MIP-3α [2]: 4.22
- CD40 Ligand [2]: 666.28
- CXCL1/GROα [2]: 68.11
- CXCL2/GROβ [2]: 60.34
- CXCL8/IL-8 [2]: 917.52
- CXCL10/IP-10 [2]: 111.72
- Flt-3 Ligand [2]: 48.51
- GM-CSF [2]: 38.36
- Granzyme B [2]: 0
- IFN-α [2]: 0
- IFN-γ [2]: 8.17
- IL-1rα [2]: 700.66
- IL-1α [2]: 0
- IL-1β [2]: 0
- IL-2 [2]: 2.34
- IL-3 [2]: 0.97
- IL-4 [2]: 0
- IL-5 [2]: 0
- IL-6 [2]: 110.14
- IL-7 [2]: 0.64
- IL-10 [2]: 11.57
- IL-12p70 [2]: 0
- IL-13 [2]: 23.19
- IL-15 [2]: 0.56
- IL-17A [2]: 0
- IL-17E/IL-25 [2]: 0
- IL-33 [2]: 4.57
- RANTES [2]: 0
- TNF-α [2]: 26.86

Sequence: LIVFNHNCLK [HB84, UniProt bacteria database peptide]
- CCL20/MIP-3α [3]: 8.75 pg/mL
- CD40 Ligand [3]: 1473.06 pg/mL
- CXCL1/GROα [3]: 73.57 pg/mL
- CXCL2/GROβ [3]: 49.19 pg/mL
- CXCL8/IL-8 [3]: 0 pg/mL
- CXCL10/IP-10 [3]: 104.46 pg/mL
- Flt-3 Ligand [3]: 100.29 pg/mL
- Fractalkine [3]: 347.74 pg/mL
- GM-CSF [3]: 5082.78 pg/mL
- Granzyme B [3]: 2479.01 pg/mL
- IFN-α [3]: 2.75 pg/mL
- IFN-γ [3]: 910.88 pg/mL
- IL-1rα [3]: 520.19 pg/mL
- IL-1α [3]: 12.29 pg/mL
- IL-1β [3]: 17.01 pg/mL
- IL-2 [3]: 167.02 pg/mL
- IL-3 [3]: 131.91 pg/mL
- IL-4 [3]: 71.31 pg/mL
- IL-5 [3]: 29.89 pg/mL
- IL-6 [3]: 102.19 pg/mL
- IL-7 [3]: 0.74 pg/mL
- IL-10 [3]: 2358.6 pg/mL
- IL-12p70 [3]: 19.71 pg/mL
- IL-13 [3]: 1338.92 pg/mL
- IL-15 [3]: 2.33 pg/mL
- IL-17A [3]: 1.97 pg/mL
- IL-17E/IL-25 [3]: 0 pg/mL
- IL-33 [3]: 15.02 pg/mL
- TNF-α [3]: 3267.52 pg/mL

Sequence: AGPVVAAAVILKEDC [Peptidome.Bac 7]
- CCL2/MCP-1 [2]: 11.43
- CCL3/MIP-1α [2]: 1
- CCL4/MIP-1β [2]: 0
- CCL11/Eotaxin [2]: 0
- CCL19/MIP-3β [2]: 2.91
- CCL20/MIP-3α [2]: 3.7
- CD40 Ligand [2]: 994.39
- CXCL1/GROα [2]: 4.06
- CXCL2/GROβ [2]: 18.18
- CXCL8/IL-8 [2]: 0
- CXCL10/IP-10 [2]: 68.01
- Flt-3 Ligand [2]: 8.98
- GM-CSF [2]: 20.54
- Granzyme B [2]: 0
- IFN-α [2]: 0
- IFN-γ [2]: 18.67
- IL-1rα [2]: 382.82
- IL-1α [2]: 0
- IL-1β [2]: 0
- IL-2 [2]: 0
- IL-3 [2]: 10.62
- IL-4 [2]: 0
- IL-5 [2]: 0
- IL-6 [2]: 16.87
- IL-7 [2]: 1.18
- IL-10 [2]: 11.57
- IL-12p70 [2]: 2.8
- IL-13 [2]: 7.47
- IL-15 [2]: 0.56
- IL-17A [2]: 0
- IL-17E/IL-25 [2]: 0
- IL-33 [2]: 0
- RANTES [2]: 0
- TNF-α [2]: 9.2
